# Measurements published in patent US10160748B2 (AbbVie Inc., priority 2015, dated 2018).
# Molecular target: TNFα trimer (Homo sapiens, UniProt P01375)
# Assay: TNFα FP Competitive Binding Assay
# Settings: FP binding assay; 20 nM TNFα trimer, 1 nM OregonGreen488 probe; read-out: TNF IC50
# Experimental: TNFα FP Competitive Binding Assay
# • 1. Assay Buffer: Prepare 1× Assay Buffer (Water with 47 mM HEPES, 47 mM NaCl, 0.9 mM EDTA, 0.0071% Triton X-100) by adding 25 mL of 1 M HEPES, 5 mL of 5 M NaCl, 1 mL of 0.5 M EDTA, and 375 μL of a 10% Triton X-100 stock to a fresh 500 mL bottle of water. • 2. Assay Mixture: Prepare fresh Assay Mixture containing 20 nM TNFα trimer (60 nM protein) and 1 nM 2′,7′-difluoro-3′,6′-dihydroxy-N-(2-(2-(2-((4-(isoquinolin-8-yl)-3-(4-(isoquinolin-8-yl)phenethoxy)benzyl)oxy)ethoxy)ethoxy)ethyl)-3-oxo-3H-spiro[isobenzofuran-1,9′-xanthene]-5-carboxamide probe in 1× Assay Buffer. Compound Plate Preparation Manual 12-Point 1:3 Dilution Plates: (384 Well Polypropylene Plates)
# Top concentration of compounds, 10 mM in DMSO, dispensed in rows A-O in columns 1 and 13. Compounds are serially diluted 1:3 with DMSO in columns 2-12 or 14-24 using a 16-channel Matrix pipettor. Plates stored at −20° C.
# Discovery Preps 12-Point 1:3 Dilution Plates: (384 Well Assay Plates)
# Top concentration, 5 mM in DMSO, of compounds placed in rows A-O in columns 1 and 13. Compounds are serially diluted 1:3 with DMSO in columns 2-12 or 14-24. Compound solutions are dispensed into replicate assay plates at 410 nL per well. Plates stored at 4° C.
# TNFα FP Competitive Binding Assay Protocol
# • 1. Compound plates warmed to rt. • 2. Fresh Assay Mixture is prepared. • 3. Assay Mixture (20 μL) is dispensed each well of 384 assay plates using a Thermo Multidrop Combi or 16-channel Matrix pipettor. If Manual 12-point 1:3 Dilution Plates are to be tested, Assay Mix is dispensed into empty plates. Discovery Preps 12-point 1:3 Dilution Plates already contain 410 nL compound solution in DMSO. • 4. For Manual 12-point 1:3 Dilution Plates, 0.7 μL is manually transferred using a 16-channel Matrix pipettor to replicate assay plates containing 20 μL Assay Mixture for a final top compound concentration of 338 μM (3.4% DMSO). • 5. For Discovery Preps 12-point 1:3 Dilution Plates, 20 μL Assay Mixture added the 410 nL compound solution already in the plates yields a final top compound concentration of 100 μM (2.0% DMSO). • 6. Background subtraction controls are wells P1-P8 containing only Assay Buffer. The low % inhibition controls are wells P9-P16 containing only Assay Mix. The high % inhibition are wells P17-P24 containing only 1 nM 2′,7′-difluoro-3′,6′-dihydroxy-N-(2-(2-(2-((4-(isoquinolin-8-yl)-3-(4-(isoquinolin-8-yl)phenethoxy)benzyl)oxy)ethoxy)ethoxy)ethyl)-3-oxo-3H-spiro[isobenzofuran-1,9′-xanthene]-5-carboxamide probe in 1× Assay Buffer. • 7. Plates are incubated at rt for 18-24 h in 37° C. incubator (CO2 is off). • 8. Prior to reading the assay, the plates are placed in a dark cabinet to equilibrate at rt for one hour. • 9. Background-subtracted fluorescence polarization (mP) is measured using a PerkinElmer Envision plate reader. • 10. Raw data is entered into Assay Explorer and dose-response curves are generated using a variable slope curve. Supplies, Materials, and Reagents
# Chain of TNFα trimer (P01375 77-233 limits assumed): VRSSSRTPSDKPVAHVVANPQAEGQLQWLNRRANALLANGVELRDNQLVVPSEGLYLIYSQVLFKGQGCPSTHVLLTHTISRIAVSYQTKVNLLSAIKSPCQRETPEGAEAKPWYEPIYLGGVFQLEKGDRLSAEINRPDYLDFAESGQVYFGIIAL
row,SMILES,IC50 [µM]
1,Cn1c(=O)c2ccc(-c3cnc(C(C)(C)O)nc3)cc2n1Cc1ccccc1OC(F)F [Example 10.1],1 to 10
2,Cn1c(=O)c2ccc(-c3cnc(N4CCOCC4)cn3)cc2n1Cc1ccccc1OC(F)F [Example 10.2],1 to 10
3,Cn1c(=O)c2ccc(-c3cnc(N4CCC(C(=O)O)CC4)cn3)cc2n1Cc1ccccc1OC(F)F [Example 10.3],> 10
4,CC(Nc1ncc(-c2ccc3c(=O)n(C)n(Cc4ccccc4OC(F)F)c3c2)cn1)C(N)=O (centres unmarked) [Example 10.4],1 to 10
5,Cn1c(=O)c2ccc(-c3nsc(N4CCOCC4)n3)cc2n1Cc1ccccc1OC(F)F [Example 10.5],> 10
6,"C[C@@H]1CN(c2ncc(-c3ccc4c(=O)n(C)n(Cc5ccccc5OC(F)F)c4c3)cn2)CCN1C(=O)CO [Example 10.6, (R)-1-(2-(difluoromethoxy)benzyl)-6-(2-(4-(2-hydroxyacetyl)-3-methylpiperazin-1-yl)pyrimidin-5-yl)-2-methyl-1H-indazol-3(2H)-one]",< 1
7,C[C@@H]1C[C@H](O)CCN1c1ncc(-c2ccc3c(=O)n(C)n(Cc4ccccc4OC(F)F)c3c2)cn1 [Example 10.9],< 1
8,Cc1nc(N2CCN(C(=O)CO)C[C@H]2C)ncc1-c1ccc2c(=O)n(C)n(Cc3ccccc3OC(F)F)c2c1 [Example 10.10],< 1
9,Cn1c(=O)c2ccc(-c3ccnc(OC4CCOCC4)c3)cc2n1Cc1ccccc1OC(F)F [Example 10.11],< 1
10,CC(=O)N1CCC(Oc2cc(-c3ccc4c(=O)n(C)n(Cc5ccccc5OC(F)F)c4c3)ccn2)CC1 [Example 10.12],1 to 10
11,Cn1c(=O)c2ccc(-c3ccnc(OC4CCCOC4)c3)cc2n1Cc1ccccc1OC(F)F (centres unmarked) [Example 10.13],1 to 10
12,C[C@@H]1CN(C(=O)CO)CCN1c1ncc(-c2ccc3c(=O)n(C)n(Cc4ccccc4OC(F)F)c3c2)cn1 [Example 10.14],< 1
13,CN(C)c1ncc(-c2ccc3c(=O)n(C)n(Cc4ccccc4OC(F)F)c3c2)cn1 [Example 10.15],1 to 10
14,CC(=O)N1CCN(c2ncc(-c3ccc4c(=O)n(C)n(Cc5ccccc5OC(F)F)c4c3)cn2)[C@H](C)C1 [Example 10.16],< 1
15,C[C@H]1CN(C(=O)CO)CCN1c1ncc(-c2ccc3c(=O)n(C)n(Cc4ccccc4OC(F)F)c3c2)cn1 [Example 10.17],< 1
16,"O=c1c2ccc(-c3cnc(N4CCOCC4)nc3)cc2n(Cc2ccccc2OC(F)F)n1C1CC1 [Example 11, 2-Cyclopropyl-1-(2-(difluoromethoxy)benzyl)-6-(2-morpholinopyrimidin-5-yl)-1H-indazol-3(2H)-one]",1 to 10
17,"Cn1c(=O)c2ccc(-c3cnc(CC4(C)COC4)nc3)cc2n1Cc1ccccc1OC(F)F [Example 12, 1-(2-(Difluoromethoxy)benzyl)-2-methyl-6-(2-((3-methyloxetan-3-yl)methyl)pyrimidin-5-yl)-1H-indazol-3(2H)-one]",1 to 10
18,"Cn1c(=O)c2ccc(-c3nc(N4CCOCC4)no3)cc2n1Cc1ccccc1OC(F)F [Example 13, 1-(2-(Difluoromethoxy)benzyl)-2-methyl-6-(3-morpholino-1,2,4-oxadiazol-5-yl)-1H-indazol-3(2H)-one]",1 to 10
19,"Cn1c(=O)c2ncc(-c3cnc(N4CCOCC4)nc3)cc2n1Cc1ccccc1OC(F)F [Example 14, 1-(2-(Difluoromethoxy)benzyl)-2-methyl-6-(2-morpholinopyrimidin-5-yl)-1H-pyrazolo[4,3-b]pyridin-3(2H)-one]",> 10
20,"Cn1c(=O)c2ccc(-c3cnc(N4CCOCC4)nc3)nc2n1Cc1ccccc1OC(F)F [Example 15, 1-(2-(Difluoromethoxy)benzyl)-2-methyl-6-(2-morpholinopyrimidin-5-yl)-1H-pyrazolo[3,4-b]pyridin-3(2H)-one]",1 to 10
21,"Cn1c(=O)c2ccc(-c3cnc(C(C)(C)O)nc3)nc2n1Cc1ccccc1OC(F)F [Example 16, 1-(2-(Difluoromethoxy)benzyl)-6-(2-(2-hydroxypropan-2-yl)pyrimidin-5-yl)-2-methyl-1H-pyrazolo[3,4-b]pyridin-3(2H)-one]",1 to 10

# Now from value to molecule:
row,IC50 [µM],SMILES
1,> 10,Cn1c(=O)c2ccc(-c3ccnc(N4CCOCC4)c3)cc2n1Cc1cccc(F)c1 [Example 11.1]
2,> 10,Cn1c(=O)c2ccc(-c3cnn(C4CCOCC4)c3)cc2n1Cc1cccc(F)c1 [Example 11.2]
3,1 to 10,Cn1c(=O)c2ccc(-c3cnc(N4CCOCC4)nc3)cc2n1-c1cc(Cl)ccc1Cl [Example 12.1]
4,< 1,Cc1cc2c(=O)n(C)n(Cc3ccccc3OC(F)F)c2cc1-c1cnc(N2CCOCC2)nc1 [Example 13.1]
5,1 to 10,Cc1cc2c(=O)n(C)n(Cc3ccccc3OC(F)F)c2cc1-c1cnc(N2CCNC(=O)C2)nc1 [Example 13.2]
6,1 to 10,Cc1cc2c(=O)n(C)n(Cc3ccccc3OC(F)F)c2cc1-c1cnc(N2CCC(C(=O)O)CC2)nc1 [Example 13.3]
7,1 to 10,Cn1c(=O)c2ccc(-c3ccc(N4CCNCC4)nc3)cc2n1Cc1ccccc1OC(F)F [Example 14.1]
8,1 to 10,Cn1c(=O)c2ccc(-c3cnc(N4CCNCC4)nc3)cc2n1Cc1cc(Cl)ccc1Cl [Example 14.2]
9,1 to 10,Cn1c(=O)c2ccc(-c3cnc(C4(O)CCN(C(=O)CN)CC4)nc3)cc2n1Cc1ccccc1OC(F)F [Example 14.3]
10,1 to 10,CC(C)[C@H](N)C(=O)OCc1ccc(OC(F)F)c(Cn2c3cc(-c4cnc(N5CCN6C(=O)OC[C@@H]6C5)nc4)ccc3c(=O)n2C)c1 [Example 14.4]
11,1 to 10,"Cc1ccc(OC(F)F)c(Cn2c3cc(-c4cnc(N5CCN[C@H](C)C5)nc4)ccc3c(=O)n2C)c1 [Example 14.5, (R)-1-(2-(difluoromethoxy)-5-methylbenzyl)-2-methyl-6-(2-(3-methylpiperazin-1-yl)pyrimidin-5-yl)-1H-indazol-3(2H)-one]"
12,< 1,Cc1ccc(OC(F)F)c(Cn2c3cc(-c4cnc(N5CCN(C(=O)[C@H](C)N)[C@@H](C)C5)nc4)ccc3c(=O)n2C)c1 [Example 14.6]
13,< 1,Cc1ccc(OC(F)F)c(Cn2c3cc(-c4cnc(N5CCN(C(=O)CN)[C@@H](C)C5)nc4)ccc3c(=O)n2C)c1 [Example 14.7]
14,< 1,C[C@@H]1CN(c2ncc(-c3ccc4c(=O)n(C)n(Cc5ccccc5OC(F)F)c4c3)cn2)CCN1C(=O)C(O)CN (some centres unmarked) [Example 14.8]
15,< 1,Cc1ccc(OC(F)F)c(Cn2c3cc(-c4cnc(N5CCN(C(=O)C(O)CN)[C@H](C)C5)nc4)ccc3c(=O)n2C)c1 (some centres unmarked) [Example 14.9]
16,< 1,Cc1ccc(OC(F)F)c(Cn2c3cc(-c4cnc(N5CCN(C(=O)CN)[C@H](C)C5)nc4)ccc3c(=O)n2C)c1 [Example 14.10]
17,< 1,Cc1ccc(OC(F)F)c(Cn2c3cc(-c4cnc(N5CCN(C(=O)[C@H](C)N)[C@H](C)C5)nc4)ccc3c(=O)n2C)c1 [Example 14.11]
18,< 1,CC(C)[C@H](N)C(=O)OCC(=O)N1CCN(c2ncc(-c3ccc4c(=O)n(C)n(Cc5ccccc5OC(F)F)c4c3)cn2)C[C@H]1C [Example 14.12]
19,< 1,CC(C)[C@@H](N)C(=O)OCC(=O)N1CCN(c2ncc(-c3ccc4c(=O)n(C)n(Cc5ccccc5OC(F)F)c4c3)cn2)C[C@H]1C [Example 14.13]
20,< 1,Cc1ccc(OC(F)F)c(Cn2c3cc(-c4cnc(N5CCN(C(=O)COC(=O)[C@@H](N)C(C)C)[C@H](C)C5)nc4)ccc3c(=O)n2C)c1 [Example 14.14]
21,< 1,C[C@H](N)C(=O)OCc1ccc(OC(F)F)c(Cn2c3cc(-c4cnc(N5CCN6C(=O)NC[C@@H]6C5)nc4)ccc3c(=O)n2C)c1 [Example 14.15]
22,< 1,CC(C)[C@H](N)C(=O)OCc1ccc(OC(F)F)c(Cn2c3cc(-c4cnc(N5CCN6C(=O)NC[C@@H]6C5)nc4)ccc3c(=O)n2C)c1 [Example 14.16]
23,< 1,Cc1ccc(OC(F)F)c(Cn2c3cc(-c4cnc(N5CCN6C(=O)NC[C@H]6C5)nc4)ccc3c(=O)n2C)c1 [Example 15.1]
